Assay results published in paper PMC6268547, “A New Ursane-Type Nor-Triterpenoid from the Leaves of Eucommia ulmoides Oliv” (Molecules, 2012).

Molecular target: T1, protein tyrosine phosphatase 1B (PTP1B) (Homo sapiens, UniProt P18031)
T1 construct: gene PTPN1; Recombinant human GST-PTP1B
T1 sequence (P18031 1-435): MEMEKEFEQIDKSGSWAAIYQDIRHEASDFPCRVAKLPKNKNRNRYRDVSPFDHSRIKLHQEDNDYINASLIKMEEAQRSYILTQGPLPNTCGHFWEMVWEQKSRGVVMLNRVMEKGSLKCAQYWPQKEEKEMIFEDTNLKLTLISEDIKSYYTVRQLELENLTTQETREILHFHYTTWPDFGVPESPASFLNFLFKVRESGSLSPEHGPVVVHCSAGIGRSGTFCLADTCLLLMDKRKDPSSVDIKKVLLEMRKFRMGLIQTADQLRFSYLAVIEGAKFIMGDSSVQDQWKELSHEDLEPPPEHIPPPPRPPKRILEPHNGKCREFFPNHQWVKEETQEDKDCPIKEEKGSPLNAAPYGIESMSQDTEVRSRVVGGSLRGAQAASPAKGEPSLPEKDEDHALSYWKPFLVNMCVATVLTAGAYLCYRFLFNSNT
Assay: pNPP hydrolysis assay with purified GST-PTP1B, absorbance at […] nm
Type: biochemical

IC50 [nM] | Structure (SMILES)
690 | C[C@H]1[C@H](C)CC[C@]2(C(=O)O)CC[C@]3(C)C(=CC[C@@H]4[C@@]5(C)C[C@@H](O)[C@H](O)C(C)(C)[C@@H]5CC[C@]43C)[C@H]12 [compound 3, corosolic acid]
3980 | C=C1[C@H](O)[C@H](O)C[C@]2(C)[C@H]3CC=C4[C@@H]5CC(C)(C)CC[C@]5(C(=O)O)CC[C@@]4(C)[C@]3(C)CC[C@@H]12 [compound 4, 2α,3α-dihydroxy-24-nor-4(23),12-oleanadien-28-oic acid]
